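The compound was tested at five concentrations on cells cultured in 96-well plates, with a 48-hour exposure period. At the TGI there is no net growth.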
Tests used:
Assay in all cases: inhibition of tumour cell growth, NCI panel, 48 h
786-0 renal = tested on: 786-0 renal
ACHN renal = tested on: ACHN renal
CAKI-1 renal = tested on: CAKI-1 renal
CCRF-CEM leukemia = tested on: CCRF-CEM leukemia
COLO 205 colon = tested on: COLO 205 colon
DLD-1 colon = tested on: DLD-1 colon
DMS 273 small cell lung = tested on: DMS 273 small cell lung
EKVX NSCLC = tested on: EKVX NSCLC
HCC-2998 colon = tested on: HCC-2998 colon
HCT-116 colon = tested on: HCT-116 colon
HCT-15 colon = tested on: HCT-15 colon
HL-60(TB) leukemia = tested on: HL-60(TB) leukemia
HOP-18 NSCLC = tested on: HOP-18 NSCLC
HOP-62 NSCLC = tested on: HOP-62 NSCLC
HOP-92 NSCLC = tested on: HOP-92 NSCLC
HT29 colon = tested on: HT29 colon
IGROV1 ovarian = tested on: IGROV1 ovarian
K-562 leukemia = tested on: K-562 leukemia
KM12 colon = tested on: KM12 colon
KM20L2 colon = tested on: KM20L2 colon
LOX IMVI melanoma = tested on: LOX IMVI melanoma
LXFL 529 NSCLC = tested on: LXFL 529 NSCLC
M14 melanoma = tested on: M14 melanoma
M19-MEL melanoma = tested on: M19-MEL melanoma
MALME-3M melanoma = tested on: MALME-3M melanoma
MOLT-4 leukemia = tested on: MOLT-4 leukemia
NCI-H226 lung = tested on: NCI-H226 lung
NCI-H23 lung = tested on: NCI-H23 lung
NCI-H460 lung = tested on: NCI-H460 lung
NCI-H522 lung = tested on: NCI-H522 lung
OVCAR-3 ovarian = tested on: OVCAR-3 ovarian
OVCAR-4 ovarian = tested on: OVCAR-4 ovarian
OVCAR-5 ovarian = tested on: OVCAR-5 ovarian
OVCAR-8 ovarian = tested on: OVCAR-8 ovarian
RPMI-8226 leukemia = tested on: RPMI-8226 leukemia
SF-295 CNS = tested on: SF-295 CNS
SF-539 CNS = tested on: SF-539 CNS
SK-MEL-2 melanoma = tested on: SK-MEL-2 melanoma
SK-MEL-5 melanoma = tested on: SK-MEL-5 melanoma
SK-OV-3 ovarian = tested on: SK-OV-3 ovarian
SN12C renal = tested on: SN12C renal
SNB-19 CNS = tested on: SNB-19 CNS
SNB-75 CNS = tested on: SNB-75 CNS
SW-620 colon = tested on: SW-620 colon
TK-10 renal = tested on: TK-10 renal
U251 CNS = tested on: U251 CNS
UACC-257 melanoma = tested on: UACC-257 melanoma
UACC-62 melanoma = tested on: UACC-62 melanoma
UO-31 renal = tested on: UO-31 renal
A498 renal = tested on: A498 renal
A549 NSCLC = tested on: A549 NSCLC
DMS 114 small cell lung = tested on: DMS 114 small cell lung
RXF 393 renal = tested on: RXF 393 renal
SF-268 CNS = tested on: SF-268 CNS
SK-MEL-28 melanoma = tested on: SK-MEL-28 melanoma
SNB-78 CNS = tested on: SNB-78 CNS
SR leukemia = tested on: SR leukemia

Molecule `CCCCCCC1NN(C(C)=O)C(CCCCCC)NN1C(C)=O` (stereo unspecified) has a TGI (786-0 renal) greater than 100 µM, a TGI (ACHN renal) greater than 100 µM and a TGI (CAKI-1 renal) greater than 100 µM. It also gave a TGI (CCRF-CEM leukemia) greater than 100 µM, a TGI (COLO 205 colon) greater than 100 µM and a TGI (DLD-1 colon) greater than 100 µM. The TGI (DMS 273 small cell lung) was greater than 100 µM, the TGI (EKVX NSCLC) was greater than 100 µM and the TGI (HCC-2998 colon) was greater than 100 µM. It also gave a TGI (HCT-116 colon) greater than 100 µM, a TGI (HCT-15 colon) greater than 100 µM and a TGI (HL-60(TB) leukemia) greater than 100 µM. The TGI (HOP-18 NSCLC) was greater than 100 µM, the TGI (HOP-62 NSCLC) was greater than 100 µM and the TGI (HOP-92 NSCLC) was greater than 100 µM. It also gave a TGI (HT29 colon) greater than 100 µM, a TGI (IGROV1 ovarian) greater than 100 µM and a TGI (K-562 leukemia) greater than 100 µM. For the same molecule, the TGI (KM12 colon) was greater than 100 µM, the TGI (KM20L2 colon) was greater than 100 µM and the TGI (LOX IMVI melanoma) was 46.7 µM. It also gave a TGI (LXFL 529 NSCLC) greater than 100 µM, a TGI (M14 melanoma) greater than 100 µM and a TGI (M19-MEL melanoma) greater than 100 µM. For the same molecule, the TGI (MALME-3M melanoma) was greater than 100 µM, the TGI (MOLT-4 leukemia) was greater than 100 µM and the TGI (NCI-H226 lung) was greater than 100 µM. For the same molecule, the TGI (NCI-H23 lung) was greater than 100 µM, the TGI (NCI-H460 lung) was 33.7 µM and the TGI (NCI-H522 lung) was greater than 100 µM. The TGI (OVCAR-3 ovarian) was greater than 100 µM, the TGI (OVCAR-4 ovarian) was greater than 100 µM and the TGI (OVCAR-5 ovarian) was greater than 100 µM. The TGI (OVCAR-8 ovarian) was greater than 100 µM, the TGI (RPMI-8226 leukemia) was 67.4 µM and the TGI (SF-295 CNS) was greater than 100 µM. It also gave a TGI (SF-539 CNS) greater than 100 µM, a TGI (SK-MEL-2 melanoma) greater than 100 µM and a TGI (SK-MEL-5 melanoma) greater than 100 µM. It also gave a TGI (SK-OV-3 ovarian) greater than 100 µM, a TGI (SN12C renal) greater than 100 µM and a TGI (SNB-19 CNS) greater than 100 µM. It also gave a TGI (SNB-75 CNS) greater than 100 µM, a TGI (SW-620 colon) of 46.1 µM and a TGI (TK-10 renal) greater than 100 µM. For the same molecule, the TGI (U251 CNS) was greater than 100 µM, the TGI (UACC-257 melanoma) was greater than 100 µM and the TGI (UACC-62 melanoma) was greater than 100 µM. For the same molecule, the TGI (UO-31 renal) was greater than 100 µM.

`O=C(Nc1ccn(CCOC(=O)c2ccccc2)c(=O)n1)c1ccccc1` showed a TGI (786-0 renal) greater than 100 µM, a TGI (A498 renal) greater than 100 µM and a TGI (A549 NSCLC) greater than 100 µM. The TGI (ACHN renal) was greater than 100 µM, the TGI (CAKI-1 renal) was greater than 100 µM and the TGI (CCRF-CEM leukemia) was greater than 100 µM. For the same molecule, the TGI (COLO 205 colon) was greater than 100 µM, the TGI (DMS 114 small cell lung) was greater than 100 µM and the TGI (DMS 273 small cell lung) was greater than 100 µM. The TGI (EKVX NSCLC) was greater than 100 µM, the TGI (HCT-116 colon) was greater than 100 µM and the TGI (HCT-15 colon) was greater than 100 µM. For the same molecule, the TGI (HL-60(TB) leukemia) was greater than 100 µM, the TGI (HOP-18 NSCLC) was greater than 100 µM and the TGI (HOP-62 NSCLC) was greater than 100 µM. The TGI (HOP-92 NSCLC) was greater than 100 µM, the TGI (HT29 colon) was greater than 100 µM and the TGI (IGROV1 ovarian) was greater than 100 µM. It also gave a TGI (K-562 leukemia) greater than 100 µM, a TGI (KM12 colon) greater than 100 µM and a TGI (KM20L2 colon) greater than 100 µM. It also gave a TGI (LOX IMVI melanoma) greater than 100 µM, a TGI (LXFL 529 NSCLC) greater than 100 µM and a TGI (M14 melanoma) greater than 100 µM. The TGI (M19-MEL melanoma) was greater than 100 µM, the TGI (MALME-3M melanoma) was greater than 100 µM and the TGI (NCI-H226 lung) was greater than 100 µM. For the same molecule, the TGI (NCI-H460 lung) was greater than 100 µM, the TGI (NCI-H522 lung) was greater than 100 µM and the TGI (OVCAR-3 ovarian) was greater than 100 µM. It also gave a TGI (OVCAR-4 ovarian) greater than 100 µM, a TGI (OVCAR-5 ovarian) greater than 100 µM and a TGI (OVCAR-8 ovarian) greater than 100 µM. It also gave a TGI (RPMI-8226 leukemia) greater than 100 µM, a TGI (RXF 393 renal) greater than 100 µM and a TGI (SF-268 CNS) greater than 100 µM. The TGI (SF-295 CNS) was greater than 100 µM, the TGI (SF-539 CNS) was greater than 100 µM and the TGI (SK-MEL-2 melanoma) was greater than 100 µM. For the same molecule, the TGI (SK-MEL-28 melanoma) was greater than 100 µM, the TGI (SK-MEL-5 melanoma) was greater than 100 µM and the TGI (SK-OV-3 ovarian) was greater than 100 µM. For the same molecule, the TGI (SN12C renal) was greater than 100 µM, the TGI (SNB-75 CNS) was greater than 100 µM and the TGI (SNB-78 CNS) was greater than 100 µM. It also gave a TGI (SR leukemia) greater than 100 µM, a TGI (SW-620 colon) greater than 100 µM and a TGI (TK-10 renal) greater than 100 µM. The TGI (U251 CNS) was greater than 100 µM, the TGI (UACC-257 melanoma) was greater than 100 µM and the TGI (UACC-62 melanoma) was greater than 100 µM. The TGI (UO-31 renal) was greater than 100 µM.

`COc1ccc(CC#N)c(OCc2ccccc2)c1` was tested, and the TGI (786-0 renal) was greater than 100 µM, the TGI (A498 renal) was 59.4 µM and the TGI (A549 NSCLC) was greater than 100 µM. The TGI (ACHN renal) was greater than 100 µM, the TGI (CAKI-1 renal) was greater than 100 µM and the TGI (CCRF-CEM leukemia) was greater than 100 µM. For the same molecule, the TGI (COLO 205 colon) was greater than 100 µM, the TGI (DLD-1 colon) was 85 µM and the TGI (DMS 114 small cell lung) was greater than 100 µM. The TGI (DMS 273 small cell lung) was greater than 100 µM, the TGI (EKVX NSCLC) was greater than 100 µM and the TGI (HCC-2998 colon) was greater than 100 µM. For the same molecule, the TGI (HCT-116 colon) was greater than 100 µM, the TGI (HOP-18 NSCLC) was 79.3 µM and the TGI (HOP-62 NSCLC) was greater than 100 µM. The TGI (IGROV1 ovarian) was greater than 100 µM, the TGI (K-562 leukemia) was greater than 100 µM and the TGI (KM12 colon) was greater than 100 µM. For the same molecule, the TGI (KM20L2 colon) was greater than 100 µM, the TGI (LOX IMVI melanoma) was greater than 100 µM and the TGI (LXFL 529 NSCLC) was 67 µM. The TGI (M14 melanoma) was greater than 100 µM, the TGI (M19-MEL melanoma) was greater than 100 µM and the TGI (MALME-3M melanoma) was 79 µM. For the same molecule, the TGI (MOLT-4 leukemia) was greater than 100 µM, the TGI (NCI-H226 lung) was 66 µM and the TGI (NCI-H23 lung) was greater than 100 µM. It also gave a TGI (NCI-H460 lung) greater than 100 µM, a TGI (NCI-H522 lung) greater than 100 µM and a TGI (OVCAR-3 ovarian) greater than 100 µM. The TGI (OVCAR-4 ovarian) was greater than 100 µM, the TGI (OVCAR-8 ovarian) was greater than 100 µM and the TGI (RPMI-8226 leukemia) was greater than 100 µM. For the same molecule, the TGI (SF-268 CNS) was greater than 100 µM, the TGI (SF-295 CNS) was greater than 100 µM and the TGI (SF-539 CNS) was greater than 100 µM. For the same molecule, the TGI (SK-MEL-28 melanoma) was 84.6 µM, the TGI (SK-MEL-5 melanoma) was 50.6 µM and the TGI (SN12C renal) was greater than 100 µM. It also gave a TGI (SNB-19 CNS) greater than 100 µM, a TGI (SR leukemia) greater than 100 µM and a TGI (SW-620 colon) greater than 100 µM. The TGI (UACC-257 melanoma) was greater than 100 µM, the TGI (UACC-62 melanoma) was greater than 100 µM and the TGI (UO-31 renal) was greater than 100 µM.

Source: PubChem BioAssay (NCI)
